Assay results reported in ChEMBL document CHEMBL5727535, “NK-3 receptor selective antagonist compounds, pharmaceutical composition and methods for use in NK-3 receptors mediated disorders” (2020).

Target: T1, Neuromedin-K receptor (Homo sapiens, UniProt P29371)
T1 sequence (P29371 whole entry): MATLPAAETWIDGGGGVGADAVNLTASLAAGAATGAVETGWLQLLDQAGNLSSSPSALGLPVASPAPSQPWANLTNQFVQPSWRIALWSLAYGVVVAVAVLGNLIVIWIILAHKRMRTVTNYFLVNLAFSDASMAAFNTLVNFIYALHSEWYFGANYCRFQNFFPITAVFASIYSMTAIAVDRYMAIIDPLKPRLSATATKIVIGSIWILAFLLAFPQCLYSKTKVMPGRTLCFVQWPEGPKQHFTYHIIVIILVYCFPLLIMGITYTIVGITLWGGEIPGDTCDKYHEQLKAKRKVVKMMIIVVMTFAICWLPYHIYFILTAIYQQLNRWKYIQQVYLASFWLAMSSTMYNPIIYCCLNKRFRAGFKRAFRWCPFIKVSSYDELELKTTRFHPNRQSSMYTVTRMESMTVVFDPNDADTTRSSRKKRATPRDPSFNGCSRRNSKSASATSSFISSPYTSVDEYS
Assay: 3H-SB222200 Binding Competition Assay with Human NK-3 Receptor: The ability of the compounds of the invention to inhibit the binding of the NK-3 receptor selective antagonist SB222200 was assessed by an in vitro radioligand binding assay. Membranes were prepared from Chinese hamster ovary recombinant cells which express the human NK3 receptor. The membranes were incubated with 5 nM 3H-SB222200_(ARC) in a HEPES 25 mM/NaCl 0.1M/CaCl2 1 mM/MgCl2 5 Mm/BSA 0.5%/Saponin 10 μg/ml buffer at pH 7.4 and various concentrations of the compounds of the invention. The amount of tritiated SB222200 bound to the receptor was determined after filtration by the quantification of membrane associated radioactivity using the TopCount-NXT reader (Packard). Competition curves were obtained for compounds of the invention and the concentrations of compounds which displaced 50% of bound radioligand (IC50) were determined and then apparent inhibition constant Ki values were calculated by the following equation: Ki=IC50/(1+[L]/KD) where [L] is the concentration of free radioligand and KD is its dissociation constant at the receptor, derived from saturation binding experiments (Cheng and Prusoff, 1973).

SMILES | Ki [nM]
O=C(c1ccc(F)cc1)N1CCn2c(nnc2-c2csc(-c3ccc(Br)cc3)n2)C1 | < 500
O=C(c1ccc(F)cc1)N1CCn2c(nnc2-c2csc(-c3cccc(Cl)c3Cl)n2)C1 | < 500
O=C(c1ccc(-c2cccs2)cc1)N1CCn2c(nnc2-c2csc(-c3ccc(Br)cc3)n2)C1 | < 500
C[C@@H]1c2nnc(-c3csc(-c4ccc(Cl)cc4)n3)n2CCN1C(=O)c1ccc(F)cc1 | < 500
Cn1nc(C(=O)N2CCn3c(nnc3-c3ccccn3)C2)cc1-c1ccc(Cl)cc1 | > 5000
O=C(c1ccc(F)cc1)N1CCn2c(nnc2-c2csc(-c3ccc(Cl)cc3Cl)n2)C1 | < 500
O=C(c1ccc(F)cc1)N1CCn2c(nnc2-c2csc(-c3cccc(Cl)c3)n2)C1 | < 500
O=C(c1ccc(F)cc1)N1CCn2c(nnc2-c2csc(-c3ccccc3Cl)n2)C1 | < 500
O=C(c1ccc(F)cc1)N1CCn2c(nnc2-c2csc(-c3cc(Cl)cc(Cl)c3)n2)C1 | < 500
O=C(c1ccc(F)cc1)N1CCn2c(nnc2-c2ccc(Cl)cn2)C1 | < 500
O=C(c1ccc(-c2cccs2)cc1)N1CCn2c(nnc2-c2csc(-c3ccccc3Cl)n2)C1 | < 500
CC1c2nnc(-c3csc(-c4ccc(F)cc4)n3)n2CCN1C(=O)c1ccc(F)c(Cl)c1 (stereo not drawn) | < 500
O=C(c1ccc(F)cc1)N1CCn2c(nnc2-c2csc(-c3ccc(Cl)cc3)n2)C1 | < 500
CC1c2nnc(-c3csc(-c4ccc(F)cc4)n3)n2CCN1C(=O)c1ccc(Cl)c(Cl)c1 (stereo not drawn) | < 500
CC1c2nnc(-c3csc(-c4ccccc4Cl)n3)n2CCN1C(=O)c1ccc(F)cc1 (stereo not drawn) | < 500
O=C(c1ccc(-c2ccccc2)cc1)N1CCn2c(nnc2-c2csc(-c3ccccc3Cl)n2)C1 | < 500
O=C(c1ccc(-c2cccs2)cc1)N1CCn2c(nnc2-c2csc(Cc3ccc(Cl)cc3)n2)C1 | < 500
CC1c2nnc(-c3csc(-c4ccc(F)cc4)n3)n2CCN1C(=O)c1ccc(Cl)c(F)c1 (stereo not drawn) | < 500
